Like-named read-outs stand apart in the source and are kept apart here.

Assay [1] deals with T1, angiotensin II receptor type 1 (AT1), suprarenal gland of rabbit (Oryctolagus cuniculus, UniProt P34976).
T1 construct: Receptor: suprarenal gland of rabbit; from tissue; host or cells: suprarenal gland (adrenal) of rabbit
T1 sequence (P34976 1-359): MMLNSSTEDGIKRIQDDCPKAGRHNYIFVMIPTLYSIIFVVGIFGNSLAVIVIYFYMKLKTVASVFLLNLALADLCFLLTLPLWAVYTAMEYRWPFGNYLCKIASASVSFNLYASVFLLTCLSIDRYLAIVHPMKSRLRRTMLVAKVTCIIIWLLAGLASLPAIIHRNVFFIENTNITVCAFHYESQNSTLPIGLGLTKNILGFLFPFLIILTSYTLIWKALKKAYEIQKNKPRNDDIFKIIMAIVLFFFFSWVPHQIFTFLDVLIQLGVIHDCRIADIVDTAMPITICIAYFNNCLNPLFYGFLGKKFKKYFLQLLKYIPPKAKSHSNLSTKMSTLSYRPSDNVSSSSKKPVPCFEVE
The assay can be described thus: Receptor binding test, AT1 (tracer 3H-angiotensin II, displacer DuP753). Particulars: room temperature, read-out: Binding inhibition ratio (%) of the test compounds at 1 μM, AT1. On the procedure: Determination of total binding in the presence of each drug to be tested was made in the following way. A test drug of a predetermined concentration (0.025 ml; dissolved in dimethyl sulfoxide, then diluted two-fold with a buffer attached to the Drug Discovery System and used for assay), a tracer (0.025 ml), and a receptor (0.2 ml) were added to make a total volume of 0.25 ml. After incubation (at room temperature for 3 hours for the angiotensin II receptor type 1 (AT1) and at 37° C. for one hour for the type 2 (AT2)), the reaction mixture was subjected to suction filtration (using GF/C filter paper for AT1 and GF/B filter paper for AT2). The filter paper (tracer-receptor complex) after suction filtration was measured by a y-well counter (ARC-500, Aloka). The non-specific binding was determined by the similar operation by using a large excess of displacer. The specific binding at the predetermined concentration of the test drug was calculated by deducting the non-specific binding from the total binding. The ratio (%) at which the test drugs inhibit binding between radioactive ligand and receptor was determined for both AT1 and AT2 by using the test drugs of the predetermined concentration and a control drug. | *Receptor: suprarenal gland of rabbit Tracer: ^3 Hangiotensin II | (displacer: […])

Assay [2] concerns the target T2, angiotensin II receptor type 2 (AT2), bovine cerebellar cortex (Bos taurus, UniProt G5E6F7).
T2 construct: Receptor: bovine cerebellar cortex; from tissue; host or cells: bovine cerebellar cortex
T2 sequence (G5E6F7 1-362): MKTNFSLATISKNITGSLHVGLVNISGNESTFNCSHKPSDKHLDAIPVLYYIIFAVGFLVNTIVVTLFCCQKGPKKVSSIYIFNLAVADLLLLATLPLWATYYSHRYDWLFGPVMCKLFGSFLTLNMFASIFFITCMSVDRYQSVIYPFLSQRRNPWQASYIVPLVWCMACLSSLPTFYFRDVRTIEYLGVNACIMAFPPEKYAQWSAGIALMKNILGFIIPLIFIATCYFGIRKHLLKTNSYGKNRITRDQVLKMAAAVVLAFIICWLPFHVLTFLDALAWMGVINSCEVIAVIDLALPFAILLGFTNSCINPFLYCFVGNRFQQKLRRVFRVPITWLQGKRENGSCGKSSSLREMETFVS
The experiment in a line: Receptor binding test, AT2 (tracer 125I-Tyr4-angiotensin II, displacer angiotensin II (human)). The note with it: 1 h, read-out: Binding inhibition ratio (%) of the test compounds at 1 μM, AT2. On the procedure: Determination of total binding in the presence of each drug to be tested was made in the following way. A test drug of a predetermined concentration (0.025 ml; dissolved in dimethyl sulfoxide, then diluted two-fold with a buffer attached to the Drug Discovery System and used for assay), a tracer (0.025 ml), and a receptor (0.2 ml) were added to make a total volume of 0.25 ml. After incubation (at room temperature for 3 hours for the angiotensin II receptor type 1 (AT1) and at 37° C. for one hour for the type 2 (AT2)), the reaction mixture was subjected to suction filtration (using GF/C filter paper for AT1 and GF/B filter paper for AT2). The filter paper (tracer-receptor complex) after suction filtration was measured by a y-well counter (ARC-500, Aloka). The non-specific binding was determined by the similar operation by using a large excess of displacer. The specific binding at the predetermined concentration of the test drug was calculated by deducting the non-specific binding from the total binding.

Setting [3] is: 1 μM, receptor: bovine cerebellar cortex, 37° C., one hour.

Regarding `Cc1cc(Cn2cnc3c2CC(C(=O)O)N(C(=O)C(c2ccccc2)c2ccccc2)C3)ccc1N` (centres unmarked) [PD123177, reference compound], the inhibition at 1 µM in assay [1] came to 0%; in assay [2] (setting [3]), 65%.

For the molecule `CCCCc1nc(Cl)c(CO)n1Cc1ccc(-c2ccccc2-c2nn[nH]n2)cc1` [DuP753, reference compound], the inhibition at 1 µM was found to be 70% in assay [1] and 0% in assay [2].

As to `CCCCc1nc2c(n1Cc1ccc(-c3ccccc3-c3nn[nH]n3)cc1)C[C@@H](C(=O)N1CCSCC1)N(C(=O)C(c1ccccc1)c1ccccc1)C2` [Compound I-32], the figures for the inhibition at 1 µM in assay [1] and in assay [2] (setting [3]) were 100% and 0%, respectively.

Turning to `CCCc1nc2c(n1Cc1ccc(-c3ccccc3-c3nn[nH]n3)cc1)CC(C(=O)O)N(C(=O)C(c1ccccc1)c1ccccc1)C2` (centres unmarked) [Reference compound 50, reference compound], the figures for the inhibition at 1 µM in assay [1] and in assay [2] (setting [3]) were 75% and 0%, respectively.

As for `O=C([C@@H]1Cc2c(ncn2Cc2ccc(-c3ccccc3-c3nnn[nH]3)cc2)CN1C(=O)C(c1ccccc1)c1ccccc1)N1CCOCC1` [Compound I-24, 4-[[(S)-5-diphenylacetyl-1-[(2'-(1H-tetrazol-5-yl)biphenyl-4-yl)methyl]-4,5,6,7-tetrahydro-1H-imidazo[4,5-c]pyridin-6-yl]carbonyl]morpholine], the inhibition at 1 µM in assay [1] stood at 0%; in assay [2] (setting [3]), 100%.

For the molecule `CCCc1nc2c(n1Cc1ccc(-c3ccccc3-c3nn[nH]n3)c(C)c1)CC(C(=O)O)N(C(=O)C(c1ccccc1)c1ccccc1)C2` (centres unmarked) [Reference compound 26, reference compound], the inhibition at 1 µM in assay [1] stood at 78%; in assay [2] (setting [3]) it was 0%.

Take `CCCCc1nc2c(n1Cc1ccc(-c3ccccc3-c3nn[nH]n3)cc1)C[C@@H](C(=O)N1CCOCC1)N(C(=O)C(c1ccccc1)c1ccccc1)C2` [Compound I-31]: the figures for the inhibition at 1 µM in assay [1] and in assay [2] (setting [3]) were 100% and 0%, respectively.

Take `Cc1cc(Cn2cnc3c2CC(C(=O)O)N(C(=O)C(c2ccccc2)c2ccccc2)C3)ccc1NC(=O)c1ccccc1C(=O)O` (centres unmarked) [Reference compound 1, reference compound]: the inhibition at 1 µM in assay [1] came out at 0%; in assay [2] (setting [3]), 71%.

Regarding `Cc1cc(Cn2cnc3c2C[C@@H](C(=O)N(C)C)N(C(=O)C(c2ccccc2)c2ccccc2)C3)ccc1NC(=O)c1ccccc1C(=O)O` [Compound I-2, (S)-1-(4-(2-carboxybenzoylamino)-3-methylphenyl)methyl-N,N-dimethyl-5-diphenylacetyl-4,5,6,7-tetrahydro-1H-imidazo[4,5-c]pyridine-6-carboxamide], the inhibition at 1 µM in assay [1] was 0%; in assay [2] (setting [3]), 100%.

Turning to `Cc1cc(Cn2cnc3c2C[C@@H](C(=O)N2CCOCC2)N(C(=O)C(c2ccccc2)c2ccccc2)C3)ccc1NC(=O)c1ccccc1C(=O)O` [Compound I-7], the inhibition at 1 µM in assay [1] was 0%; in assay [2] (setting [3]), 100%.

With `CN(C)C(=O)[C@@H]1Cc2c(ncn2Cc2ccc(NC(=O)c3ccccc3C(=O)O)cc2)CN1C(=O)C(c1ccccc1)c1ccccc1` [Compound I-1], the inhibition at 1 µM in assay [1] was 0%; in assay [2] (setting [3]), 100%.

As to `CCCCc1nc2c(n1Cc1ccc(NC(=O)c3ccccc3C(=O)O)c(C)c1)C[C@@H](C(=O)N(C)C)N(C(=O)C(c1ccccc1)c1ccccc1)C2` [Compound I-12], the inhibition at 1 µM in assay [1] is 100%; in assay [2] (setting [3]), 0%.

As for `CCCCc1nc2c(n1Cc1ccc(-c3ccccc3-c3nn[nH]n3)cc1)C[C@@H](C(=O)N(CC)CC)N(C(=O)C(c1ccccc1)c1ccccc1)C2` [Compound I-40], the inhibition at 1 µM in assay [1] came out at 100%; in assay [2] (setting [3]), 0%.

Turning to `O=C(O)C1Cc2c(ncn2Cc2ccc(-c3ccccc3-c3nn[nH]n3)cc2)CN1C(=O)C(c1ccccc1)c1ccccc1` (centres unmarked) [Reference compound 27, reference compound], the results for the inhibition at 1 µM in assay [1] and in assay [2] (setting [3]) were 0% and 76%, respectively.

In the case of `O=C(O)c1ccc(Cn2cnc3c2C[C@@H](C(=O)N2CCOCC2)N(C(=O)C(c2ccccc2)c2ccccc2)C3)cc1` [Compound I-21], the inhibition at 1 µM was determined as 0% in assay [1] and 100% in assay [2] (setting [3]).

Consider `CCCCc1nc2c(n1Cc1ccc(-c3ccccc3-c3nn[nH]n3)c(C)c1)C[C@@H](C(=O)N(C)C)N(C(=O)C(c1ccccc1)c1ccccc1)C2` [Compound I-19], for which the inhibition at 1 µM in assay [1] amounted to 100%; in assay [2] (setting [3]), 0%.

In the case of `CCCCc1nc2c(n1Cc1ccc(NC(=O)c3ccccc3C(=O)O)c(C)c1)C[C@@H](C(=O)N1CCOCC1)N(C(=O)C(c1ccccc1)c1ccccc1)C2` [Compound I-30], the inhibition at 1 µM in assay [1] is 100%; in assay [2] (setting [3]), 0%.

For the molecule `CCCCc1nc2c(n1Cc1ccc(-c3ccccc3C(=O)O)cc1)C[C@@H](C(=O)N(C)C)N(C(=O)C(c1ccccc1)c1ccccc1)C2` [Compound I-17], the inhibition at 1 µM in assay [1] was 100%; in assay [2] (setting [3]), 0%.

With `COC(=O)C1Cc2c(ncn2Cc2ccc(NC(=O)c3ccccc3C(=O)O)c(C)c2)CN1C(=O)C(c1ccccc1)c1ccccc1` (centres unmarked) [Reference compound 2, reference compound], the inhibition at 1 µM was found to be 0% in assay [1] and 72% in assay [2] (setting [3]).

The values are drawn from US5401736A, “4,5,6,7-tetrahydro-1H-imidazo[4,5-c]pyridine-6-carboxylic acid amide” (Kureha Kagaku Kogyo Kabushiki Kaisha, priority 1992, dated 1995).
